Experimental data from patent US9738676B2, “Selected macrolides with PDE4-inhibiting activity” (Basilea Pharmaceutica AG, priority 2012, dated 2017).
In brackets after ≈: the same amount, converted by molar mass.

Key:
[1] = tested on: P. granulosum EG13NS; test: MIC determination by broth microdilution (anaerobic); format: cell-based; conditions: read-out: MIC (μg/ml) P. granulosum EG13NS
Description: (§1) All MIC values are determined by broth microdilution according to the guidelines by the Clinical and Laboratory Standards Institute (CLSI, Wayne Pa., USA). Staphylococcus aureus ATCC29213 is grown on Müller-Hinton agar (MHA) (Becton Dickinson) and then in cation-adjusted Müller Hinton broth (CaMHB) (Becton Dickinson) for 24 h at 37° C. Streptococcus pyogenes ATCC19615 and Moraxella catharrhalis QK34 are grown on MHA with 2.5% Laked Horse Blood (Oxoid). Liquid cultures in CaMHB+5% horse serum (Sigma) are incubated for 24 h at 35° C. in a 5% CO2 atmosphere. Haemophilus. influenzae 3168 is grown on MHA+2.5% Fildes extract (Oxoid). Liquid cultures are grown in CaMHB+5% Fildes extract at 35° C. in a 5% CO2 atmosphere. Propionibacteria are grown on Wilkins-Chalgren agar (WCA) (Oxoid) for 72 h under anaerobic conditions. Liquid cultures are grown anaerobically in Wilkins-Chalgren broth (WCB) (Oxoid) for 48 h at 35° C. MIC values are obtained by broth microdilution using WCB (Anaerobe Broth MIC, Difco). Microtitre plates are loaded into 7-L GENbox anaerobic incubation jars (BioMerieux) fitted with anaerobic atmosphere generators (BioMerieux) and a Dry Anaerobic Indicator Strip (BBL). Under these conditions, an O2 concentration <0.1% is achieved by 2.5 h, and a CO2 concentration >15% by 24 h.

[2] = tested on: P. acnes EG7NS; test: as above; format: cell-based, Propionibacterium acnes; conditions: for MIC: Cutibacterium acnes, EG7NS, read-out: MIC (μg/ml) P. acnes EG7NS
Description: as §1

[3] = target: hERG channel (Homo sapiens (Human), UniProt Q12809); test: Blocking of hERG channel, whole-cell patch clamp in stably transfected HEK 293 cells; format: cell-based; conditions: for Blocking of hERG @ 1 μM (% remaining tail current) / Blocking of hERG @ 10 μM (% remaining tail current): HEK 293 cells
[4] = tested on: PDE4 (U937); test: PDE4 enzyme inhibition, IMAP fluorescence polarization assay; format: biochemical, human; conditions: for IC50: PDE4 partially purified from U937 cells
Description: PDE4 is partially purified from undifferentiated human monocytic cells (U937) according to Thorpy et al. 1992 (J. Pharmacol. Exp. Ther. 263: 1195). Cells are grown in Iscove's modified Dulbecco's medium (GIBCO) with 5% foetal bovine serum (GIBCO) and 100 μg/mL penicillin-streptomycin (GIBCO). Cells are broken by sonication and PDE4 is purified by anion-exchange chromatography on DEAE-Sepharose CL-6B (GE Healthcare). […] In addition, PDE4 preparations are validated by inhibition studies with PDE4-specific and unspecific PDE inhibitors.
PDEs specifically hydrolyze cAMP and/or cGMP and release the product AMP and/or GMP. The potency of PDE inhibition by test compounds is determined with a commercially available in vitro enzymatic assay (IMAP® Fluorescence Polarization assay, Molecular Devices Corp.). Fluorescently labeled cAMP or cGMP is hydrolyzed by PDE preparations and in a second step, binding of labeled product to a large binding partner allows product detection by fluorescence polarization (FP) measurements.
Stock solutions of the test compounds are made in DMSO and diluted in assay buffer (10 mM Tris-HCl, 10 mM MgCl2, 0.1% BSA 0.05% NaN3, pH 7.2) to the desired concentrations. The solutions used in the assay contain the test compound in assay buffer with 2% DMSO. 5 μl of this pre-diluted test compound solution are mixed with 10 μl of substrate (FL-cAMP or FL-cGMP) at concentrations recommended by the manufacturer and with 5 μl of appropriately diluted PDE. 5 μl of reaction buffer with 2% DMSO are used for control reactions. […] After incubation for 90 minutes at room temperature, 60 μl of binding reagent are added as specified by the manufacturer. Binding is allowed to proceed for 30 minutes and fluorescence polarization is measured. Dose dependence of PDE inhibition is measured by assaying dilution series of test compounds. IC50 values are determined from the measured activities by curve fitting.

[5] = tested on: M. catarrhalis QK34; test: MIC determination by broth microdilution; format: cell-based, Moraxella catharrhalis; conditions: Moraxella catarrhalis, read-out: MIC (μg/ml) M. catarrhalis QK34
Description: as §1

[6] = tested on: bacteria; test: Antibacterial activity; format: cell-based
Description: as §1

[7] = Oral bioavailability, pharmacokinetic study in mice; format: in vivo, mouse; conditions: for bioavailability: in vivo, mouse, 10 mg/kg oral, 1 mg/kg intravenous, dose-normalized AUC, read-out: Oral bioavail. (mouse F %)
Description: Drug concentrations in blood or plasma are determined as a function of time in pharmacokinetic studies. Mice were treated with the test compound at defined doses. 10 mg/kg is used for oral administration and 1 mg/kg is taken for intravenous administration. Blood or plasma samples are collected at defined time-points and the drug content is determined by LC-MS/MS. The drug concentration is plotted as a function of time and the non-intravenous (oral) and the intravenous area under the curve (AUC) is calculated using the linear trapezoidal rule. The oral bioavailability is then calculated using dose-normalized AUC with the following formula: F[%]=AUCoral/AUCintravenous*100 Blocking of hERG Channel

[8] = tested on: H. influenzae 3168; test: MIC determination by broth microdilution; format: cell-based; conditions: Haemophilus influenzae, read-out: MIC (μg/ml) H. influenzae 3168
Description: as §1

[9] = tested on: S. aureus ATCC29213; test: MIC determination by broth microdilution; format: cell-based; conditions: Staphylococcus aureus, read-out: MIC (μg/ml) S. aureus ATCC29213
Description: as §1

[10] = tested on: S. pyogenes ATCC19615; test: MIC determination by broth microdilution; format: cell-based; conditions: Streptococcus pyogenes, read-out: MIC (μg/ml) S. pyogenes ATCC19615
Description: as §1

Chain of hERG channel (Q12809 whole entry): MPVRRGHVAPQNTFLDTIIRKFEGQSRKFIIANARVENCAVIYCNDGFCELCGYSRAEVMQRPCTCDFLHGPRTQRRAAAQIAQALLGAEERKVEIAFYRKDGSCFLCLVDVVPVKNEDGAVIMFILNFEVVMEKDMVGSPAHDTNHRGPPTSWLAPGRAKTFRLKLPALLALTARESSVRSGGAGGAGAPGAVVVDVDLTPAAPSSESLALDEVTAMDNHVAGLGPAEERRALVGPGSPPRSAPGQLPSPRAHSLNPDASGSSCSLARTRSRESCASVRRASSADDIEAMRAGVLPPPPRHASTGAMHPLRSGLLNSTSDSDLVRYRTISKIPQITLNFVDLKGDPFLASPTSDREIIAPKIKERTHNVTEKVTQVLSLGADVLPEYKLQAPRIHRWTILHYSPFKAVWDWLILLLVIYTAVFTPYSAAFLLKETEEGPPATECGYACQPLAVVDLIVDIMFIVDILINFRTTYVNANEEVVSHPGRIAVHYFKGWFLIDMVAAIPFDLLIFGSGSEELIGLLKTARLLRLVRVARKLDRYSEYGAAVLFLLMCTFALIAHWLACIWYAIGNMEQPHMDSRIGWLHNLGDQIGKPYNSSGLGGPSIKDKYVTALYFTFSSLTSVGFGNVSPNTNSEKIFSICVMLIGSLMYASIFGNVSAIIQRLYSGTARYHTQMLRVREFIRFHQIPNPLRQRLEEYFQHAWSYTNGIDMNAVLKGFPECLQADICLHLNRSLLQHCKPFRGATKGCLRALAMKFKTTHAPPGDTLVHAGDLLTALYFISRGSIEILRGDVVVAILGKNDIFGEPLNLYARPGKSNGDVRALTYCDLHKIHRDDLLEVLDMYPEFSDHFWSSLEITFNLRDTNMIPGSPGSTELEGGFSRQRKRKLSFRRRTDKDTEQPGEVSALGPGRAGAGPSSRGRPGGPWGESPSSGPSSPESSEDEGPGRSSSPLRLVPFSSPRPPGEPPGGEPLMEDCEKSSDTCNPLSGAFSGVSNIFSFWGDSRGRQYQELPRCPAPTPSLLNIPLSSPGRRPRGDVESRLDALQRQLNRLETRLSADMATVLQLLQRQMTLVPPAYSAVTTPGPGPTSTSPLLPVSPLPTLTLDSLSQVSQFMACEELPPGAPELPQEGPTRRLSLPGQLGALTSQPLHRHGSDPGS

Row | Structure (SMILES) | MIC [1] [µg/mL] | MIC [2] [µg/mL] | hERG channel inhibiting activity (in words) [3] | Blocking of hERG @ 1 μM (% remaining tail current) [3] [%] | Blocking of hERG @ 10 μM (% remaining tail current) [3] [%] | PDE4-inhibiting activity (in words) [4] | IC50 [4] [µM] | MIC [5] [µg/mL] | antibacterial activity (in words) [6] | oral bioavailability (in words) [7] | bioavailability [7] [%] | MIC [8] [µg/mL] | MIC [9] [µg/mL] | MIC [10] [µg/mL] | activity against certain strains of Propionibacterium acnes (in words) [2]
1 | CC[C@H]1OC(=O)[C@H](C)[C@@H](O)[C@H](C)[C@@H](O[C@@H]2O[C@H](C)C[C@H](N(C)C(=O)N3CCOCC3)[C@H]2O)[C@](C)(OC)C[C@@H](C)C(=O)[C@H](C)[C@H]2C(SCCN(Cc3c(Cl)cncc3Cl)c3ccc(OC)c(OC4CCCC4)c3)C(=O)O[C@@]21C (stereo in doubt) [compound of formula (I)] | > 32 | > 32 | does not inhibit | 99.9 | 98 | excellent | 0.035 | > 32 | strongly reduced | particularly good | 22.8 | > 32 | > 32 | > 32 | 
2 | CC[C@H]1OC(=O)[C@H](C)[C@@H](O[C@H]2C[C@@](C)(OC)[C@@H](O)[C@H](C)O2)[C@H](C)[C@@H](O[C@@H]2O[C@H](C)C[C@H](N(C)C(=O)N3CCOCC3)[C@H]2O)[C@](C)(OC)C[C@@H](C)C(=O)[C@H](C)[C@H]2[C@H](SCCOc3cc(C(=O)Nc4c(Cl)cncc4Cl)ccc3OC)C(=O)O[C@@]21C [Example 15 WO2009/106419] | > 32 | > 32 |  | 100 | 98.6 | excellent | 0.071 | > 32 | strongly reduced | rather low | 4.6 | > 32 | > 32 | > 32 | 
3 | CC[C@H]1OC(=O)[C@H](C)[C@@H](O[C@H]2C[C@@](C)(OC)[C@@H](O)[C@H](C)O2)[C@H](C)[C@@H](O[C@@H]2O[C@H](C)C[C@H](N(C)C(C)=O)[C@H]2O)[C@](C)(OC)C[C@@H](C)C(=O)[C@H](C)[C@H]2[C@H](SCCN(Cc3c(Cl)cncc3Cl)c3ccc(OC)c(OC4CCCC4)c3)C(=O)O[C@@]21C [Example 10 of WO2009/106419] | 2 (≈ 1.63 µM) | 4 (≈ 3.26 µM) |  | 95.9 | 85.5 | excellent | 0.031 | 8 (≈ 6.53 µM) | strong remaining antibacterial activity against certain types of bacteria | particularly good | 25.5 | 32 (≈ 26.1 µM) | > 32 | 8 (≈ 6.53 µM) | 
4 | CC[C@H]1OC(=O)[C@H](C)[C@@H](O[C@H]2C[C@@](C)(OC)[C@@H](O)[C@H](C)O2)[C@H](C)[C@@H](O[C@@H]2O[C@H](C)C[C@H](N(C)C(=O)N3CCOCC3)[C@H]2O)[C@](C)(OC)C[C@@H](C)C(=O)[C@H](C)[C@H]2N(CCCOc3cc(C(=O)Nc4c(Cl)cncc4Cl)ccc3OC)C(=O)O[C@]12C [Example 2 of WO2001/018510] | > 32 | 2 (≈ 1.63 µM) | acceptable | 99 | 84 |  | 0.876 | > 32 | low against many bacterial strains | moderate to good | 16.2 | > 32 | > 32 | > 32 | still very active
5 | CC[C@H]1OC(=O)[C@H](C)[C@@H](O)[C@H](C)[C@@H](O[C@@H]2O[C@H](C)C[C@H](N(C)C)[C@H]2OC)[C@](C)(OC)C[C@@H](C)C(=O)[C@H](C)[C@H]2[C@H](SCCN(Cc3c(Cl)cncc3Cl)c3ccc(OC)c(OC4CCCC4)c3)C(=O)O[C@@]21C [Example 9 of WO2009/106419] | 4 (≈ 3.8 µM) | 4 (≈ 3.8 µM) | rather strong | 23.7 | 3.7 | good to moderate | 0.3 | > 32 | antibacterially inactive against many pathogenic types of bacteria | moderate | 9 | > 32 | 8 (≈ 7.6 µM) | 32 (≈ 30.4 µM) | 
6 | CC[C@H]1OC(=O)[C@H](C)[C@@H](O[C@H]2C[C@@](C)(OC)[C@@H](O)[C@H](C)O2)[C@H](C)[C@@H](O[C@@H]2O[C@H](C)C[C@H](N(C)C(=O)N3CCOCC3)[C@H]2O)[C@](C)(OC)C[C@@H](C)C(=O)[C@H](C)[C@H]2[C@H](SCCN(Cc3c(Cl)cncc3Cl)c3ccc(OC)c(OC4CCCC4)c3)C(=O)O[C@@]21C | > 32 | > 32 |  | 99.2 | 82.9 |  | 0.043 | > 32 |  |  | 1.5 | > 32 | > 32 | > 32 | 
7 | CC[C@H]1OC(=O)[C@H](C)[C@@H](O)[C@H](C)[C@@H](O[C@@H]2O[C@H](C)C[C@H](N(C)C(=O)N3CCOCC3)[C@H]2O)[C@](C)(OC)C[C@@H](C)C(=O)[C@H](C)[C@H]2[C@H](SCCOc3cc(C(=O)Nc4c(Cl)cncc4Cl)ccc3OC)C(=O)O[C@@]21C | > 32 | > 32 |  | 99.9 | 100 |  | 0.0001 | > 32 |  |  | 11.5 | > 32 | > 32 | > 32 | 
